Data: patent US9204646B2, “Pyrazole tetrahydronaphthyl carboxamides” (BAYER CROPSCIENCE AG, priority 2012, dated 2015)

Experiments:
[1] = Measurement of log P values by HPLC on reversed phase columns (EEC directive 79/831 Annex V.A8); format: physicochemical; settings: for logP: method [a]: LC-MS at pH 2.7, 0.1% formic acid in water / acetonitrile, linear gradient 10% to 95% acetonitrile, Table 1 active ingredients; for chromatographic logP: pH 2.7
Pyrenophora teres = experiment: In vivo preventive test on Pyrenophora teres (net blotch on barley); settings: dose of 500 ppm; preventive spray on barley plants; grading 14 days after contamination vs control plants
Description: Barley plants (“Plaisant” variety), sown in starter cups on a 50/50 peat soil-pozzolana substrate and grown at 22° C., are treated at the 1-leaf stage (10 cm height) by spraying with the active ingredient prepared as described above. Plants, used as controls, are treated with the mixture of acetone/tween/DMSO/water not containing the active material. After 24 hours, the plants are contaminated by spraying the leaves with an aqueous suspension of Pyrenophora teres spores (12 000 spores per ml). The spores are collected from a 12-day-old culture. The contaminated barley plants are incubated for 48 hours at 20° C. and at 100% relative humidity, and then for 12 days at 20° C. at 70-80% relative humidity. Grading (% of efficacy) is carried out 14 days after the contamination, in comparison with the control plants.

Pyricularia oryzae = format: in vivo; settings: dose of 500 ppm; preventive spray on rice plants; grading 6 days after contamination vs control plants
Puccinia recondita = experiment: In vivo preventive test on Puccinia recondita (brown rust on wheat); settings: dose of 500 ppm; preventive spray on wheat plants; grading 12 days after contamination vs control plants
Description: Wheat plants (“Scipion” variety), sown in starter cups on a 50/50 peat soil-pozzolana substrate and grown at 22° C., are treated at the 1-leaf stage (10 cm height) by spraying with the active ingredient prepared as described above. Plants, used as controls, are treated with the mixture of acetone/tween/DMSO/water not containing the active material. After 24 hours, the plants are contaminated by spraying the leaves with an aqueous suspension of Puccinia recondita spores (100 000 spores per ml). […] The contaminated wheat plants are incubated for 24 hours at 20° C. and at 100% relative humidity, and then for 10 days at 20° C. and at 70-80% relative humidity. Grading (% of efficacy) is carried out 12 days after the contamination, in comparison with the control plants.

Sphaerotheca fuliginea = experiment: In vivo preventive test on Sphaerotheca fuliginea (powdery mildew on cucurbits); settings: dose of 500 ppm; preventive spray on gherkin plants; grading 12 days after contamination vs control plants
Description: Gherkin plants (“Vert petit de Paris” variety), sown in starter cups on a 50/50 peat soil-pozzolana substrate and grown at 24° C., are treated at the Z11 cotyledon stage by spraying with the active ingredient prepared as described above. Plants, used as controls, are treated with the mixture of acetone/tween/DMSO/water not containing the active material. After 24 hours, the plants are contaminated by spraying the cotyledons with an aqueous suspension of Sphaerotheca fuliginea spores (100 000 spores per ml). The spores are collected from infected plants. The contaminated gherkin plants are incubated at about 20° C. and at 70-80% relative humidity. Grading (% of efficacy) is carried out 12 days after the contamination, in comparison with the control plants.

Uromyces appendiculatus = experiment: In vivo preventive test on Uromyces appendiculatus (bean rust); settings: dose of 500 ppm; preventive spray on bean plants; grading 11 days after contamination vs control plants
Description: Bean plants (“Saxa” variety), sown in starter cups on a 50/50 peat soil-pozzolana substrate and grown at 24° C., are treated at the 2-leaf stage (9 cm height) by spraying with the active ingredient prepared as described above. Plants, used as controls, are treated with the mixture of acetone/tween/DMSO/water not containing the active material. After 24 hours, the plants are contaminated by spraying the leaves with an aqueous suspension of Uromyces appendiculatus spores (150 000 spores per ml). […] The contaminated bean plants are incubated for 24 hours at 20° C. and at 100% relative humidity, and then for 10 days at 20° C. and at 70-80% relative humidity. Grading (% of efficacy) is carried out 11 days after the contamination, in comparison with the control plants.

Alternaria brassicae = experiment: In vivo preventive test on Alternaria brassicae (leaf spot on radish); settings: dose of 500 ppm; preventive spray on radish plants; grading 6 days after contamination vs control plants
Description: Radish plants (“Pernod Clair” variety), sown in starter cups on a 50/50 peat soil-pozzolana substrate and grown at 17° C., are treated at the cotyledon stage by spraying with the active ingredient prepared as described above. Plants, used as controls, are treated with the mixture of acetone/tween/DMSO/water not containing the active material. After 24 hours, the plants are contaminated by spraying the cotyledons with an aqueous suspension of Alternaria brassicae spores (50 000 spores per ml). The spores are collected from a 15-day-old culture. The contaminated radish plants are incubated at 20° C. and at 100% relative humidity. Grading (% of efficacy) is carried out 6 days after the contamination, in comparison with the control plants.

Septoria tritici = experiment: In vivo preventive test on Septoria tritici (leaf spot on wheat); settings: dose of 500 ppm; preventive spray on wheat plants; grading 24 days after contamination vs control plants
Description: Wheat plants (“Scipion” variety), sown in starter cups on a 50/50 peat soil-pozzolana substrate and grown at 22° C., are treated at the 1-leaf stage (10 cm height) by spraying with the active ingredient prepared as described above. Plants, used as controls, are treated with the mixture of acetone/tween/DMSO/water not containing the active material. After 24 hours, the plants are contaminated by spraying the leaves with an aqueous suspension of cryopreserved Septoria tritici spores (500 000 spores per ml). The contaminated wheat plants are incubated for 72 hours at 18° C. and at 100% relative humidity, and then for 21 days at 90% relative humidity. Grading (% of efficacy) is carried out 24 days after the contamination, in comparison with the control plants.

[2] = tested on: Fusarium nivale (var. majus); experiment: In vivo Fusarium nivale (var. majus)-test (wheat)/preventive; settings: concentration of 500 ppm of active ingredient; preventive spray on wheat plants; evaluated 5 days after inoculation; 0% = untreated control, 100% = no disease
Description: • Solvent: 49 parts by weight of N,N-dimethylacetamide • Emulsifier: 1 part by weight of alkylaryl polyglycol ether To produce a suitable preparation of active compound, 1 part by weight of active compound or active compound combination is mixed with the stated amounts of solvent and emulsifier, and the concentrate is diluted with water to the desired concentration. To test for preventive activity, young plants are sprayed with the preparation of active compound or active compound combination at the stated rate of application. After the spray coating has been dried, the plants are slightly injured by using a sandblast and afterwards they are sprayed with a conidia suspension of Fusarium nivale (var. majus). The plants are placed in the greenhouse under a translucent incubation cabinet at a temperature of approximately 10° C. and a relative atmospheric humidity of approximately 100%.

Phakopsora pachyrhizi = experiment: In vivo Phakopsora test (soybeans)/preventive; settings: concentration of 10 ppm of active ingredient; preventive spray on soybean plants; evaluated 7 days after inoculation; 0% = untreated control, 100% = no disease
Description: To produce a suitable preparation of active compound, 1 part by weight of active compound is mixed with the stated amounts of solvent and emulsifier, and the concentrate is diluted with water to the desired concentration. To test for preventive activity, young plants are sprayed with the preparation of active compound at the stated rate of application. After the spray coating has dried on, the plants are inoculated with an aqueous spore suspension of the causal agent of soybean rust (Phakopsora pachyrhizi) and stay for 24 h without light in an incubation cabinet at approximately 24° C. and a relative atmospheric humidity of 95%. The plants remain in the incubation cabinet at approximately 24° C. and a relative atmospheric humidity of approximately 80% and a day/night interval of 12 h.

Botrytis cinerea = experiment: In vivo preventive test on Botrytis cinerea (grey mould); settings: dose of 500 ppm; preventive spray on gherkin plants; grading 4 to 5 days after contamination vs control plants
Description: Gherkin plants (“Vert petit de Paris” variety), sown in starter cups on a 50/50 peat soil-pozzolana substrate and grown at 24° C., are treated at the Z11 cotyledon stage by spraying with the active ingredient prepared as described above. Plants, used as controls, are treated with the mixture of acetone/tween/DMSO/water not containing the active material. After 24 hours, the plants are contaminated by spraying the cotyledons with an aqueous suspension of cryopreserved Botrytis cinerea spores (50 000 spores per ml). The spores are suspended in a nutrient solution composed of 10 g/L of PDB, 50 g/L of D-Fructose, 2 g/L of NH4NO3 and 1 g/L of KH2PO4. The contaminated gherkin plants are incubated at 17° C. and at 90% relative humidity. Grading (% of efficacy) is carried out 4 to 5 days after the contamination, in comparison with the control plants.

Row | Structure (SMILES) | logP [1] | Eff. % (Pyrenophora teres) [%] | Eff. % (Pyricularia oryzae) [%] | Eff. % (Puccinia recondita) [%] | Eff. % (Sphaerotheca fuliginea) [%] | Eff. % (Uromyces appendiculatus) [%] | chromatographic logP [1] | Eff. % (Alternaria brassicae) [%] | Eff. % (Septoria tritici) [%] | Eff. % [2] [%] | Eff. % (Phakopsora pachyrhizi) [%] | Eff. % (Botrytis cinerea) [%]
1 | CC1c2cccc(NC(=O)c3c(C(F)F)nn(C)c3F)c2CCC1(C)C (racemic) [Example 12] | 4.11[a] | 81 | 71 | 100 | 100 | 100 |  |  |  |  |  | 
2 | Cn1nc(C(F)F)c(C(=O)Nc2cccc3c2CCCC3(C)C)c1F [Example 1, 5-fluoro-3-(difluoromethyl)-N-(5,5-dimethyl-5,6,7,8-tetrahydronaphthalen-1-yl)-1-methyl-1H-pyrazole-4-carboxamide] |  |  |  | 100 |  | 100 | 3.67 | 93 | 88 | 92 |  | 
3 | Cn1nc(C(F)F)c(C(=O)Nc2cccc3c2CCCC3(C)C)c1Cl [Example 2] | 3.89[a] |  |  | 98 |  | 100 |  |  |  | 86 | 96 | 
4 | C=C1c2cccc(NC(=O)c3c(C(F)F)nn(C)c3F)c2CCC1(C)C [Example 6] | 3.87[a] | 80 |  | 89 | 70 | 97 |  | 97 | 75 |  |  | 97
5 | Cn1nc(C(F)F)c(C(=O)Nc2cccc3c2CCC(C)(C)C3)c1F [Example 22] | 3.79[a] | 70 |  | 94 | 100 | 100 |  | 80 | 83 |  |  | 99
6 | Cn1nc(C(F)F)c(C(=O)Nc2cccc3c2CCC(C)(C)C3)c1Cl [Example 25, 5-chloro-3-(difluoromethyl)-N-(6,6-dimethyl-5,6,7,8-tetrahydronaphthalen-1-yl)-1-methyl-1H-pyrazole-4-carboxamide] |  |  |  | 98 |  | 100 | 4.04 | 70 | 100 |  |  | 97
